Experimental data published in US6770652B2, “Multiple acting anti-angiogenic and cytotoxic compounds and methods for using the same” (Duquesne University of the Holy Ghost, priority 2001, dated 2004).
Where two headings read alike, the source gives them in different places.

How the values were obtained:
[1] = U251 cytotoxicity; format: cell-based; conditions: human, U251 cells; Table 4; read-out: U251 cytotoxicity Inhibition, apparent IC50
[2] = system: chorioallantoic membrane (CAM) of 10-day old chicken embryos; experiment: CAM assay (growth factor-induced angiogenesis on chorioallantoic membrane); format: in vivo; conditions: for IC50: Gallus gallus, read-out: CAM angiogenesis Inhibition, apparent IC50
Experimental: Human VEGF-165 and BFGF (200 ng each) were added to saturation to a microbial testing disk and placed onto the chorioallantoic membrane (CAM) of 10-day old chicken embryos. Eight hours after the growth factor treatment, unknown compounds (100 μg) were added to the same microbial testing disk. Growth factors and embryos were allowed to incubate an additional 40 hours. CAMS were removed, paraformaldehyde (4% in PBS) fixed, placed onto Petri dishes, and digital images taken at 7.5× using a dissecting microscope. A 1×1-cm grid was then added to the digital CAM images and the number of vessels within each grid counted as a measure of vascularity. […] Data were then graphed (FIG. 1) as a percent of growth factor-induced blood vessel amounts.

[3] = target: Flk-1 (Homo sapiens, UniProt P35968); experiment: Phospho-Flk1 phosphotyrosine ELISA (cytoblot) on whole U251 glioblastoma cells; Flk1 kinase inhibition; format: cell-based
Experimental: Reactions were stopped by the aspiration of media and the addition of phosphate buffered saline (PBS) containing 0.05% triton X-100, protease inhibitor cocktail and phosphatase inhibitor cocktail 2 (Sigma Chemical company) for 10 minutes on ice. Cells were then fixed at 60° C. for 30 minutes and then cold methanol added to the cells for five minutes to further permeabilize them for antibody penetration. Cells were blocked for one hour with 1% bovine serum albumin in PBS, washed twice in PBS, and then anti-phosphotyrosine-HRP conjugate (Oncogene Research) added at 1:250 dilution overnight. The antibody was then removed, the cells washed three times in PBS with 1% BSA and once with PBS, and luminol-peroxide reagent added (Pierce Biochemical) for 5 minutes. […] Data are graphed as a percentage of growth factor (EGF, VEGF) treated controls.

[4] = target: Flt-1 (Homo sapiens, UniProt P17948); experiment: Flt-1 kinase inhibition; format: cell-based; conditions: Table 4; read-out: Flt-1 kinase Inhibition, apparent IC50
[5] = Table 2, read-out: FIK1 Kinase Inhibition IC50
[6] = Table 4, U251 cells overexpress Flk1, read-out: Flk-1 kinase Inhibition, apparent IC50

Flk-1, sequence (P35968 20-1356): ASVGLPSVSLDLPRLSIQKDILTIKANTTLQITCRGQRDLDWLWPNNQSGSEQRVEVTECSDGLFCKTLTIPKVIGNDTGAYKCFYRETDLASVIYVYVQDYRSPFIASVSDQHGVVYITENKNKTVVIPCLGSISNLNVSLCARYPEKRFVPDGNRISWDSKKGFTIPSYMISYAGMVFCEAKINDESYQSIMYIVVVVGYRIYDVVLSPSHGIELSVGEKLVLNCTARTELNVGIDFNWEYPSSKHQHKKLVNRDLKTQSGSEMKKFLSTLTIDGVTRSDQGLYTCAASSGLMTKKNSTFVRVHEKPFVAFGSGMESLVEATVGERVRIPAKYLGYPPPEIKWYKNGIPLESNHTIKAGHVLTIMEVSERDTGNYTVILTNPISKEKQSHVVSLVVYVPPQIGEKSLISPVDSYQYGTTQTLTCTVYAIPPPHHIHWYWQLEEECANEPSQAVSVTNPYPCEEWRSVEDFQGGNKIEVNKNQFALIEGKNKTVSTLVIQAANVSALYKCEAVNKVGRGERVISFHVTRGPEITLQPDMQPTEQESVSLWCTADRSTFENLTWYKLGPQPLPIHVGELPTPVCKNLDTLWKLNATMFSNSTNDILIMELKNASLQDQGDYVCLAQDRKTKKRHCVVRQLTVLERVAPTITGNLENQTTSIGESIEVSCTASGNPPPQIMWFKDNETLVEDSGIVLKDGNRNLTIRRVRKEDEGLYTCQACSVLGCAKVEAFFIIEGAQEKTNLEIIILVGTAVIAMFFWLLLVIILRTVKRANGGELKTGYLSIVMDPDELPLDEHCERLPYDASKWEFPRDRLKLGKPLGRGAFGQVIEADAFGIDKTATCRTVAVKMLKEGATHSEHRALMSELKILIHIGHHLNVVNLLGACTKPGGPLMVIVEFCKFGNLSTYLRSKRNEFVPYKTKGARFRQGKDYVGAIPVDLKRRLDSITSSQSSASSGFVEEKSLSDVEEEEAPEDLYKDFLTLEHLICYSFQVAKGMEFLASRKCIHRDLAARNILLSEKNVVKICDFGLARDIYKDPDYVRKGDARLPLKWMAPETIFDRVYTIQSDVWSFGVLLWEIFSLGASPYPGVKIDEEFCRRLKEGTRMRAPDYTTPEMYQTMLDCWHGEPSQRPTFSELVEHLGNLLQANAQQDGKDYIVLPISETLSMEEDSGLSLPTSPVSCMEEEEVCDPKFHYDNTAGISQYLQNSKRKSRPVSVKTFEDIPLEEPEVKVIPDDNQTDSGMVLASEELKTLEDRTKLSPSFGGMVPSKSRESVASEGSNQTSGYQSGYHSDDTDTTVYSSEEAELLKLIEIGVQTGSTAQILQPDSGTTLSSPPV
Flt-1, sequence (P17948 27-1338, species assumed): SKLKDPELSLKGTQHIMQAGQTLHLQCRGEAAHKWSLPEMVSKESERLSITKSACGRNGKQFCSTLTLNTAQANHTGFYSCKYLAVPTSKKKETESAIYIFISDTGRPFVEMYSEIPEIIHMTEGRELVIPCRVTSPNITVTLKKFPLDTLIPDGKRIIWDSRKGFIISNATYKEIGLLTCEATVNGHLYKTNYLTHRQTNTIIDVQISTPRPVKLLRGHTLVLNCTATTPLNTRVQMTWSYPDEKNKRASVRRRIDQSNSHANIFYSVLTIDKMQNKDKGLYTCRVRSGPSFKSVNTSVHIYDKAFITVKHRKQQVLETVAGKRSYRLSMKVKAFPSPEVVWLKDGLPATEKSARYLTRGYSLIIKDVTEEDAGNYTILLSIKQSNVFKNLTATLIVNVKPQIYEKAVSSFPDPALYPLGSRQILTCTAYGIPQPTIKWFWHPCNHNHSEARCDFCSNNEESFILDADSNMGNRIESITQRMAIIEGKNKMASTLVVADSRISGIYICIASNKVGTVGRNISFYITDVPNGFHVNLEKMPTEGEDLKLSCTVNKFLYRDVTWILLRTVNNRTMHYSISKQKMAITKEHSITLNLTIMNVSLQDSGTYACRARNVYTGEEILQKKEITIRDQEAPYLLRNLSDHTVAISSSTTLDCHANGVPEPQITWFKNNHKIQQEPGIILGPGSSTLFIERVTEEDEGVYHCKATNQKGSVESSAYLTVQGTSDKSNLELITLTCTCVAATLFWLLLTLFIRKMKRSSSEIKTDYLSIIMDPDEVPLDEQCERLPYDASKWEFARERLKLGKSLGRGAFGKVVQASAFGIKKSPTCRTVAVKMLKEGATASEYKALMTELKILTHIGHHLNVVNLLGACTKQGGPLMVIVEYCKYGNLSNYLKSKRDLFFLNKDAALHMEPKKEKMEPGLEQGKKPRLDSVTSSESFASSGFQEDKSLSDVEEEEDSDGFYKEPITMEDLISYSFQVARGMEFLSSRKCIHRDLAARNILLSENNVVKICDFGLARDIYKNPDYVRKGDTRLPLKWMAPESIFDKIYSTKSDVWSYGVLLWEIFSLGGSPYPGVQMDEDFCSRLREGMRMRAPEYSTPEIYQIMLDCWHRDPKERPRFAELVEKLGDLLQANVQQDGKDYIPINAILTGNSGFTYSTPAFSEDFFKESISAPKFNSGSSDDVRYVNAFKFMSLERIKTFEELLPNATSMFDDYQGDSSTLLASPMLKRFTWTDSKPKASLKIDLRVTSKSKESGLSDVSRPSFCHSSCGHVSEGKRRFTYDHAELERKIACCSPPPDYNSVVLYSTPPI

SMILES	IC50 [2] [nM]	further results
Cc1cc(C)c(/C=C2\C(=O)Nc3ccccc32)[nH]1 [SU5416, reference compound]	< 100	IC50 [1]: 200 nM
Nc1nc(Nc2cccc(Br)c2)c2cc(Cc3ccccc3Cl)[nH]c2n1 [YJ/AG 145]	1700	
Nc1nc(Nc2cccc(Br)c2)c2cc(Cc3ccc4ccccc4c3)[nH]c2n1 [YJ/AG 146]	8900	IC50 [3, 5]: > 50000 nM; IC50 [3, 6]: > 50000 nM
Nc1nc(Nc2cccc(Br)c2)c2cc(Cc3ccc(Cl)c(Cl)c3)[nH]c2n1 [YJ/AG 148]	< 100	Toxicity remark in CAM angiogenesis column ([2]; Table 4, remark under the CAM value): (toxic)
Nc1nc(Nc2cccc(Br)c2)c2cc(Cc3ccc(-c4ccccc4)cc3)[nH]c2n1 [YJ/AG 154]	< 100	
Nc1nc(Nc2cccc(Br)c2)c2cc(Cc3ccccc3)[nH]c2n1 [YJ/AG 156]	< 100	IC50 [1]: 3400 nM
Nc1nc(Nc2cccc(Br)c2)c2cc(Cc3cccc4ccccc34)[nH]c2n1 [YJ/AG 158]	< 100	
Cc1ccccc1Cc1cc2c(Nc3cccc(Br)c3)nc(N)nc2[nH]1 [YJ/AG 168]	1200	IC50 [3, 5]: 300 nM; IC50 [4]: > 50000 nM; IC50 [1]: 5000 nM
Nc1nc(Nc2cccc(Br)c2)c2cc(Cc3ccc(Cl)cc3Cl)[nH]c2n1 [YJ/AG 176]	10800	
COc1cc(Cc2cc3c(Nc4cccc(Br)c4)nc(N)nc3[nH]2)cc(OC)c1OC [YJ/AG 177]	400	
COc1ccc(OC)c(Cc2cc3c(Nc4cccc(Br)c4)nc(N)nc3[nH]2)c1 [YJ/AG 178]	1300	IC50 [3, 5]: 600 nM; IC50 [3, 6]: 600 nM
